{"source": "patent US7915276B2", "about": "“Berberrubine derivatives having antifungal activities” (priority 2006, dated 2011)", "key": {"[1]": {"system": "Candida glabrata ATCC 48435", "assay": "In vitro antifungal activity (MIC), NCCLS method", "assay_type": "cell-based", "conditions": "Candida glabrata ATCC 48435; 48 hours", "how_it_was_run": "(§1)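 Broth microdilution per NCCLS: two-fold serial dilutions of test compound inoculated with fungal suspension at a final 5×10^2 to 2.5×10^3 cell/mL. Strains other than Cryptococcus neoformans were incubated 48 hours before MIC reading.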"}, "[2]": {"system": "Mucor ramosissimus ATCC 90286", "assay": "In vitro antifungal activity (MIC), NCCLS method", "assay_type": "cell-based", "conditions": "48 hours", "how_it_was_run": "as §1"}, "[3]": {"system": "Candida albicans A207 (clinical isolate)", "assay": "In vitro antifungal activity (MIC), NCCLS method", "assay_type": "cell-based", "conditions": "48 hours", "how_it_was_run": "as §1"}, "Candida krusei ATCC 6258": {"system": "Candida krusei ATCC 6258", "assay": "In vitro antifungal activity (MIC), NCCLS method", "assay_type": "cell-based", "conditions": "48 hours", "how_it_was_run": "as §1"}, "[4]": {"system": "Candida lusitaniae ATCC 42720", "assay": "In vitro antifungal activity (MIC), NCCLS method", "assay_type": "cell-based", "conditions": "48 hours", "how_it_was_run": "as §1"}, "[5]": {"system": "Cryptococcus neoformans ATCC 36556", "assay": "In vitro antifungal activity (MIC), NCCLS method", "assay_type": "cell-based", "conditions": "RPMI 1640 medium, 72 hours", "how_it_was_run": "as §1"}, "[6]": {"system": "Candida parapsilosis ATCC 34136", "assay": "In vitro antifungal activity (MIC), NCCLS method", "assay_type": "cell-based", "conditions": "Candida parapsilosis ATCC 34136; 48 hours", "how_it_was_run": "as §1"}, "[7]": {"system": "Aspergillus fumigatus ATCC 16424", "assay": "In vitro antifungal activity (MIC), NCCLS method", "assay_type": "cell-based", "conditions": "48 hours", "how_it_was_run": "(§2)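 Two-fold dilutions, final inoculum 5×10^2–2.5×10^3 cell/mL, NCCLS protocol; 48 h culture for these strains. MIC = minimum inhibitory concentration.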"}, "[8]": {"system": "Aspergillus terreus ATCC 46941", "assay": "In vitro antifungal activity (MIC), NCCLS method", "assay_type": "cell-based", "conditions": "48 hours", "how_it_was_run": "as §2"}, "[9]": {"system": "Candida tropicalis ATCC 13803", "assay": "In vitro antifungal activity (MIC), NCCLS method", "assay_type": "cell-based", "conditions": "48 hours", "how_it_was_run": "as §1"}, "[10]": {"system": "Candida albicans ATCC 10231", "assay": "In vitro antifungal activity (MIC), NCCLS method", "assay_type": "cell-based", "conditions": "48 hours", "how_it_was_run": "as §1"}, "[11]": {"system": "Aspergillus flavus ATCC 64025", "assay": "In vitro antifungal activity (MIC), NCCLS method", "assay_type": "cell-based", "conditions": "48 hours", "how_it_was_run": "as §2"}, "Acute toxicity in mice": {"assay": "Acute toxicity in mice", "assay_type": "in vivo, ICR mice", "conditions": "for Acute toxicity LD50: ICR mouse, male", "protocol": "Each compound was suspended in 1% carboxymethylcellulose (CMC), and orally and abdominally administered to 6-week-old male ICR mice. […] Then, an autopsy was performed on the mice."}, "human pathogenic fungi": {"system": "human pathogenic fungi", "assay": "Antifungal activity against human pathogenic fungi (summary statements)", "assay_type": "cell-based", "from_the_text": "Candida albicans ATCC 10231, Candida lusitaniae ATCC 42720, Candida krusei ATCC 6258, Candida tropicalis ATCC 13803, Candida glabrata ATCC 48435, Candida parapsilosis ATCC 34136, Cryptococcus neoformans ATCC 36556, Aspergillus fumigatus ATCC 16424, Aspergillus flavus ATCC 64025, Aspergillus terreus ATCC 46941 and Mucor ramosissimus ATCC 90286 strains for the MIC (minimum inhibitory concentration) measurement were obtained from ATCC (American Type Culture Collection) in the U.S. The Candida albicans A207(clinical isolate) strain was used by isolating it from the patients.\nThe determination of MIC was performed according to the NCCLS (National Committee for Clinical Laboratory Standard) method. Each test sample solution was diluted two-fold and inoculated with a fungal suspension to reach a final inoculum size of 5×10^2 to 2.5×10^3 cell/mL. The Cryptococcus neoformans strain was cultured in the RPMI 1640 medium for 72 hours. Other strains were cultured for 48 hours."}, "[12]": {"target": "T1, chitin synthase 1 of Candida albicans chs2 Δ chs 3 Δ (Candida albicans, UniProt P23316)", "T1 construct": "Crude enzyme was prepared using the Candida albicans chs2 Δ chs 3 Δ mutant; endogenous in cells; host or cells: Candida albicans chs2Δ/chs2Δ chs3Δ/chs3Δ mutant; 130,000 x g membrane pellet", "T1 sequence (P23316 whole entry, stated change not applied)": "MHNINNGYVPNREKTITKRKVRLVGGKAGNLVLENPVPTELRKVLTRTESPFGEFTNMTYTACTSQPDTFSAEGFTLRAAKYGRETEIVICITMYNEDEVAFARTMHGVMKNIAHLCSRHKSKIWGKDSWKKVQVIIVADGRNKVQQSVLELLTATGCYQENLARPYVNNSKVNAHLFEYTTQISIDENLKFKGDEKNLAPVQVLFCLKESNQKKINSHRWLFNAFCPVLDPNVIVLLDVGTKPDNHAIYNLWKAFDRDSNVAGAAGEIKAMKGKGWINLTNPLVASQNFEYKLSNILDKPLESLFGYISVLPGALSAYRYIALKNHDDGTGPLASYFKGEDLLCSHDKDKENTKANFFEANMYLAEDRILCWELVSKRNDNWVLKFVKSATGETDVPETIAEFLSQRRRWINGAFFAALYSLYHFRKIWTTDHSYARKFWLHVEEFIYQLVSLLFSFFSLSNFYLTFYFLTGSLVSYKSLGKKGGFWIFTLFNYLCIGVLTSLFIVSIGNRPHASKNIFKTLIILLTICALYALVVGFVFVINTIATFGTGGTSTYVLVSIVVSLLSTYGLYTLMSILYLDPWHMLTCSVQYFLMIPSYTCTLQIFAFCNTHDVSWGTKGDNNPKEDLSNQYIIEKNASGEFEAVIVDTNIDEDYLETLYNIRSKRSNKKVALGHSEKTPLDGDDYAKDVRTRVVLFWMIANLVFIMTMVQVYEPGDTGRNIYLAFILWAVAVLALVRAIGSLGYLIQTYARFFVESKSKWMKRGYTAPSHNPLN", "assay": "In vitro enzyme assay for chitin synthase 1 of Candida albicans (enzyme 1)", "assay_type": "biochemical", "conditions": "relative to polyoxin D (50% inhibitory activity = value 5)", "how_it_was_run": "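Trypsin-activated crude membrane chitin synthase 1 from C. albicans chs2Δ chs3Δ was incubated 90 min at 30 °C with 1.1 mM UDP-[14C]GlcNAc and 2 mM cobalt acetate in Tris-HCl pH 7.5. Filtered TCA precipitate was counted by scintillation; values are scores 1–8 against polyoxin D (5 = same concentration).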"}, "[13]": {"target": "T2, chitin synthase 2 of Saccharomyces cerevisiae ECY38-38A(pAS6) (Saccharomyces cerevisiae, UniProt P14180)", "T2 construct": "made in house; host or cells: Saccharomyces cerevisiae ECY38-38A (chs1-23 chs2::LEU2 cal1/csd2) carrying plasmid pAS6, grown in galactose medium; 130,000 x g membrane pellet", "T2 sequence (P14180 whole entry)": "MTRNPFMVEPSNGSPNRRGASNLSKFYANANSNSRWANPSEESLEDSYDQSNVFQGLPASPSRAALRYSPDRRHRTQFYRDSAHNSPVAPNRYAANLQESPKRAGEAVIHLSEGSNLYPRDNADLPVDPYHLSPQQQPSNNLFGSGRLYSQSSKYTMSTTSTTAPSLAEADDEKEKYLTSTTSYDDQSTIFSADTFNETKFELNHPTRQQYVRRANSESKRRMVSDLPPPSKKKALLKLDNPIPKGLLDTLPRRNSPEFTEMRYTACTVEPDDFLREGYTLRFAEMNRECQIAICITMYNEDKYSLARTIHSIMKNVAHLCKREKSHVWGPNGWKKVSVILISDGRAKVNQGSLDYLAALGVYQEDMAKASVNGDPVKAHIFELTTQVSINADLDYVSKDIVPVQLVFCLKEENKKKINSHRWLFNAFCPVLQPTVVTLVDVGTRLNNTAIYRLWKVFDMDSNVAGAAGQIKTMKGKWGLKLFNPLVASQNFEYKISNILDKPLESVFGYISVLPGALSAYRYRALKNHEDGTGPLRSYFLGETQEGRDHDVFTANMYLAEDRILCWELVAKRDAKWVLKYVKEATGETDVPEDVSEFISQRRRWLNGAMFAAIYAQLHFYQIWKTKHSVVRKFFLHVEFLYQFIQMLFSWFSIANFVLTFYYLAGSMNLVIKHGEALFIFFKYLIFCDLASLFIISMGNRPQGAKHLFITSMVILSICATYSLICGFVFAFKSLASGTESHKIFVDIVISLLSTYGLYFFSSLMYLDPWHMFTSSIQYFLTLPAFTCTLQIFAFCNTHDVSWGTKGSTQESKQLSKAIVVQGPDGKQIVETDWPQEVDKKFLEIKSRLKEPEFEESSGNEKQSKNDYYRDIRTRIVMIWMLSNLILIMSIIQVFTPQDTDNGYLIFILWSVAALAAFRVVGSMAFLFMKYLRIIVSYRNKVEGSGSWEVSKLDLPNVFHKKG", "assay": "In vitro enzyme assay for chitin synthase 2 of Saccharomyces cerevisiae (enzyme 2)", "assay_type": "biochemical", "conditions": "relative to polyoxin D (50% inhibitory activity = value 5)", "how_it_was_run": "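Values are scores: 5 means 50% inhibition at the same concentration as polyoxin D, lower scores 2- to 16-fold higher concentration, higher scores ½ to ⅛. Radiolabel from 1.1 mM UDP-[14C]-GlcNAc was incorporated into TCA-insoluble chitin over 90 min at 30 °C (pH 7.5 Tris, 2 mM Co2+). The enzyme was a trypsin-activated membrane fraction from CHS2-only S. cerevisiae ECY38-38A(pAS6).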"}, "chitin synthases": {"system": "chitin synthases", "assay": "Inhibitory activity against the chitin synthases (summary statements)", "assay_type": "biochemical", "from_the_text": "The inhibitory activities against the chitin synthase 1 of Candida albicans chs2 Δ chs 3 Δ (abbreviated as ‘enzyme 1’) and the chitin synthase 2 of Saccharomyces cerevisiae ECY38-38A(pAS6)(abbreviated as ‘enzyme 2’) was examined for compound Nos. 1 to 70 compound and polyoxin D, a positive control compound.\nThe inhibitory activity against the chitin synthase 1 prepared from Candida albicans and the chitin synthase 2 prepared from Saccharomyces cerevisiae were examined as follows. A reaction mixture containing 32 mM Tris-HCl (pH 7.5), 2 mM cobalt acetate, 1.1 mM UDP-[U-^14C]-N-acetyl-d-glucosamine (GlcNAc) (400,000 cpm/μmol), 2 μL of trypsin (0.75 mg/mL), 20 μL of each crude enzyme and 14 μL of each test sample was kept at 30° C. for 15 minutes to activate the enzyme. Then, 2 μL of trypsin inhibitor (1.5 mg/mL) was added and the mixture was kept in an ice bath for 10 minutes to deactivate trypsin. 2 μL of 0.8 M N-acetyl-d-glucosamine was added to a total volume of 50 μL and reaction was performed at 30° C. for 90 minutes. The reaction was stopped using 1 mL of 10% TCA solution and the reaction solution was filtered with a GF/C filter and dried at room temperature. After adding 3 mL of a scintillation cocktail solution, the amount of isotopes was measured using a liquid scintillation counter. Percentage inhibition against each enzyme was calculated by the following Equation 1."}}, "data": [{"substance": "13-(4-tert-Butylbenzyl)-9-O-butylberberrubine iodide [Compound No. 8]", "values": [{"measurement": "MIC (minimum inhibitory concentration)", "setting": "[1]", "value": 4, "unit": "µg/mL"}, {"measurement": "MIC (minimum inhibitory concentration)", "setting": "[2]", "value": 4, "unit": "µg/mL"}, {"measurement": "MIC (minimum inhibitory concentration)", "setting": "[3]", "value": 0.5, "unit": "µg/mL"}, {"measurement": "MIC (minimum inhibitory concentration)", "setting": "Candida krusei ATCC 6258", "value": 2, "unit": "µg/mL"}, {"measurement": "MIC (minimum inhibitory concentration)", "setting": "[4]", "value": 1, "unit": "µg/mL"}, {"measurement": "MIC (minimum inhibitory concentration)", "setting": "[5]", "value": 1, "unit": "µg/mL"}, {"measurement": "MIC (minimum inhibitory concentration)", "setting": "[6]", "value": 4, "unit": "µg/mL"}, {"measurement": "MIC (minimum inhibitory concentration)", "setting": "[7]", "value": 2, "unit": "µg/mL"}, {"measurement": "MIC (minimum inhibitory concentration)", "setting": "[8]", "value": 8, "unit": "µg/mL"}, {"measurement": "MIC (minimum inhibitory concentration)", "setting": "[9]", "value": 0.25, "unit": "µg/mL"}, {"measurement": "MIC (minimum inhibitory concentration)", "setting": "[10]", "value": 0.5, "unit": "µg/mL"}, {"measurement": "MIC (minimum inhibitory concentration)", "setting": "[11]", "value": 8, "unit": "µg/mL"}, {"measurement": "Acute toxicity LD50", "setting": "Acute toxicity in mice; abdominal", "value": ">15", "unit": "mg/kg"}, {"measurement": "Acute toxicity LD50", "setting": "Acute toxicity in mice; oral", "value": ">1000", "unit": "mg/kg"}, {"measurement": "deaths", "setting": "Acute toxicity in mice; mice, oral administration dosage of 1,000 mg/kg", "value": "no case of death observed"}, {"measurement": "Autopsy findings", "setting": "Acute toxicity in mice; mouse, in vivo", "value": "Nothing"}, {"measurement": "general symptoms and body weight", "setting": "Acute toxicity in mice; mouse, in vivo", "value": "no abnormalities"}, {"measurement": "Autopsy findings", "setting": "Acute toxicity in mice; mouse, in vivo, po", "value": "Nothing"}, {"measurement": "antifungal activities compared with amphotericin B (in words)", "setting": "human pathogenic fungi", "value": "comparable to that of amphotericin B"}, {"measurement": "Relative activity Enzyme 1", "setting": "[12]", "value": "4 (Compounds having the inhibitory activity at 2-fold, 4-fold, 8-fold and 16-fold higher concentrations than that of polyoxin D were given the values of 4, 3, 2 and 1, respectively)"}, {"measurement": "Relative activity Enzyme 2", "setting": "[13]", "value": "7 (compounds having the inhibitory activity at ½, ¼ and ⅛ lower concentrations than that of polyoxin D were given the values of 6, 7 and 8, respectively)"}, {"measurement": "inhibitory activities against the chitin synthases (in words)", "setting": "chitin synthases", "value": "exceptionally superior inhibitory activities"}]}]}
